Measured values published in patent US6372727B1, “Metalloporphyrin treatment of neurologic disease” (UAB Research Foundation, priority 1999, dated 2002).

Assays:
[1] = Solubility and passage of membranes (statement); assay type: physicochemical
[2] = system: ALS-SOD1 (G93A) transgenic mice; assay: Survival of ALS-SOD1 (G93A) transgenic mice; assay type: in vivo
Protocol: FIG. 13A: Transgenic mice (n=9) were injected intraperitoneally with 3 mg/kg/day of a low molecular weight (844.6) synthetic iron porphyrin. […] Treatment was continued until such time that signs of diaphragm weakness (labored breathing) necessitated sacrifice. A control group of transgenic mice was treated with vehicle only (phosphate-buffered saline). FIG. 13B: Transgenic mice were injected intraperitoneally with 1 mg/kg/day of a low molecular weight (844.6) synthetic iron porphyrin. Treatment began at day 60 prior to the onset of symptoms. A control group of transgenic mice was treated with vehicle only (phosphate-buffered saline).
Mice transgenic for the G93A mutated form of SOD1 are generally accepted as the standard model of motor neuron disease. […] This compound extended the mean survival time by 13 days (from 127 to 140 days) (FIG. 13A).
A group of G93A mice was treated with 1 mg/kg of FeTCPP intraperitoneally beginning at 60 days of age. As with the control group in FIG. 13A, none of the control group in this test survived past 132 days. However, the probability of survival at 140 days was about 37% and at approximately 180 days survival was still at 20%.

[3] = MP 5 μM, GSH 2 mM, 0.1 M potassium phosphate pH 7.4, 37° C.
Protocol: Aliquots (14 μl) were removed at 10 min intervals and added to 1.4 of 0.1 M potassium phosphate, pH 7.4 containing 0.2 mM dithionitrobenzoic acid (Ellman's Reagent) and 50 μM EDTA. GSH concentration was determined by the change in 430 nm absorbance. The extinction coefficient at 430 nm was determined to be 13,900 M^−1cm^−1 using a fresh GSH solution standardized by weight.
In order to test the hypothesis that Mn(II)- or Fe(II)-porphyrins would be capable of carrying out two-electron reductions of peroxynitrite and thereby decreasing rather than increasing its reactivity, attempts were made to pre-reduce these transition metal-containing MPs prior to addition of peroxynitrite.

[4] = MP-catalyzed nitration of HPA: effect of pH, reductants and serum; assay type: biochemical
Protocol: Single additions of 100 μM peroxynitrite were made to reactions containing ascorbate or GSH. Three sequential additions of 100 μM peroxynitrite were made to all other reactions.
This level of bicarbonate results in rapid saturation of the solution with carbon dioxide (˜1 mM). Solutions were placed into a rapidly stirred cuvette and nine bolus additions (50 μM×3, 100 μM×3, and 200 μM×3) of peroxynitrite were made sequentially while the absorbance was monitored. Increasing amounts of peroxynitrite were added in a sequential manner in order to determine whether nitration efficiency varied with concentration and to determine whether nitration catalysis was maintained with multiple additions (see FIG. 6 inset). Nitration efficiency was defined as the amount of nitropeptide formed per amount of peroxynitrite added and was calculated for each peroxynitrite addition; the values shown are the average of all nine peroxynitrite additions. The absorbance changes associated with nitrotyrosine peptide production were monitored simultaneously at 380, 430, and 460 nm. The extinction coefficients for nitrated GYA at pH 7.4 are 4,400 M^−1cm^−1 at 430 nm and 2,200 M^−1cm^−1 at both 380 and 460 nm. […] Wavelengths used to quantify nitrotyrosine production were chosen to minimize interference by the particular metalloporphyrin used. Experiments using HPA as a nitration target (FIG. 7) contained 8 mM HPA in either 0.1 M potassium phosphate, pH 7.4 or 0.1 M sodium borate, pH 9.1.

[5] = Oxidation of metalloporphyrins by peroxynitrite, stopped-flow spectroscopy; assay type: biochemical; settings: 37° C., 0.1 M potassium phosphate pH 7.4, pseudo-first order, ± standard error
Protocol: Peroxynitrite (in 10 mM NaOH) was rapidly mixed with the indicated MPs in 0.1 M potassium phosphate, pH 7.4 at 37° C. using a stopped-flow apparatus as described in Methods. […] A final concentration of 40 μM peroxynitrite was added to 8 μM of each of the MPs MnTBAP, MnPPIX, and FePPIX. […] INSET: Apparent rate constants for oxidation of 8 μM MnTBAP are plotted as a function of peroxynitrite concentration to illustrate how the rate constants listed in Table III were determined.
Rates of metal loporphyrin oxidation by peroxynitrite were determined using a Bio Sequential SX-18MV Applied Photophysics stopped-flow spectrofluorometer. Solutions of metalloporphyrins in 0.1 M potassium phosphate buffer, pH 7.4 were placed in one syringe and solutions of peroxynitrite in 10 mM NaOH were placed in a second syringe, both of which were submerged in a water bath at 37° C. Changes in metalloporphyrin absorbance as a function of time were recorded following triggering of syringe firing and solution mixing (instrument dead time=2 msec); a total of 1000 data points were collected over intervals ranging from 50 msec to 3 sec. […] Because the absorbance changes associated with loss of +3 forms were greater, rates of metalloporphyrin oxidation were determined by monitoring the disappearance of Mn(III)TMPyP at 462 nm, Mn(III)TBAP at 468 nm, Mn(III)PPIX at 466 nm, and Fe(III)PPIX at 464 nm. Absorbance changes as a function of time were fitted to the equation describing a first order process. The concentration of peroxynitrite was varied from five-fold to forty-fold greater than the fixed metalloporphyrin concentration in order to obtained pseudo first-order conditions (see Table III). Each concentration was injected 10 times and data were averaged automatically prior to fitting.
Rate constants for stoichiometric metalloporphyrin oxidation by peroxynitrite at 37° C. were determined under pseudo-first order reaction conditions by varying the amount of peroxynitrite added to a fixed concentration of metalloporphyrin (Table III).
In Table III, the rate of peroxynitrite-mediated oxidation of metalloporphyrins at 37° C. was determined. Apparent rate constants were determined by stopped-flow spectroscopy and plotted versus the peroxynitrite concentration (as shown for MnTBAP in FIG. 4 inset) to determine the bimolecular rate constant in M^−1s^−1±standard error. FePPIX was monitored at 387 nm, MnPPIX at 464 nm, and MnTBAP at 470 nm.

[6] = reference (8); cited from earlier work
[7] = 1 mg/kg intraperitoneally beginning at 60 days of age

Structure (SMILES): O=C(O)c1ccc(-c2c3nc(c(-c4ccc(C(=O)O)cc4)c4ccc([n-]4)c(-c4ccc(C(=O)O)cc4)c4nc(c(-c5ccc(C(=O)O)cc5)c5ccc2[n-]5)C=C4)C=C3)cc1.[Fe+2] [FeTCPP, Iron (III) meso 5,10,15,20-tetrakis-(4-carboxy-phenyl) porphyrin]
- passage of cell membranes and the blood-brain-barrier [1]: readily cross cell membranes and the blood-brain-barrier
- water solubility [1]: very water soluble
- probability of survival at 140 days [2, 7]: about 37%
- survival at approximately 180 days [2, 7]: 20%
- mean survival time ([2]; 5 mg/kg, treatment from onset of symptoms): 140 days
- extension of mean survival time ([2]; 5 mg/kg, treatment from onset of symptoms, versus vehicle): 13 days
- progression of motor neuron death in mice ([2]; G93A mutant of Cu,Zn superoxide dismutase transgene): slow the progression of motor neuron death
- upper limit of survival time ([2]; administered at the onset of symptoms): about 148 days

Structure (SMILES): C[n+]1ccc(-c2c3nc(c(-c4cc[n+](C)cc4)c4ccc([n-]4)c(-c4cc[n+](C)cc4)c4nc(c(-c5cc[n+](C)cc5)c5ccc2[n-]5)C=C4)C=C3)cc1.[Cl-].[Cl-].[Cl-].[Cl-].[Cl-].[Mn+3] [MnTMPyP, Manganese (III) meso-tetra-(N-methyl-4-pyridyl)-porphine chloride]
- rate of GSH oxidation [3]: 22 µM/min
- enhancement of nitration yield at pH 9.1 ([4]; 8 mM HPA, 10 μM MP, 0.1 M sodium borate pH 9.1, versus non-catalyzed): 12.3 fold
- effect of ascorbate and GSH on nitration enhancement ([4]; concentrations which eliminated non-catalyzed nitration): much less inhibitory effect
- ascorbate concentration giving complete inhibition of nitration enhancement ([4]; dose-dependent, not shown): 1.5 mM
- effect of serum on nitration enhancement ([4]; fresh human serum 1:10 added prior to peroxynitrite): much less effect
- Rate Constants for Oxidation of MPs by Peroxynitrite [5]: 3.6e+06 M⁻¹ s⁻¹
- effect of HOCl on the MP (50 μM HOCl): appeared to destroy the metal-pyrrole center
- oxidation by H2O2 (0.5 mM H2O2, 20 min): did not appear to oxidize
- Rate constant for oxidation by peroxynitrite reported previously [6]: 1.8e+06 M⁻¹ s⁻¹
